Molecular target: Elastase (Pseudomonas aeruginosa (strain ATCC 15692 / PAO1 / 1C / PRS 101 / LMG12228), UniProt P14756)
Assay: Inhibition of Pseudomonas aeruginosa LasB by fluorimetric assay in buffer of pH 7.2
Settings: not given; call rule not given here

Chain of Elastase (P14756 whole entry): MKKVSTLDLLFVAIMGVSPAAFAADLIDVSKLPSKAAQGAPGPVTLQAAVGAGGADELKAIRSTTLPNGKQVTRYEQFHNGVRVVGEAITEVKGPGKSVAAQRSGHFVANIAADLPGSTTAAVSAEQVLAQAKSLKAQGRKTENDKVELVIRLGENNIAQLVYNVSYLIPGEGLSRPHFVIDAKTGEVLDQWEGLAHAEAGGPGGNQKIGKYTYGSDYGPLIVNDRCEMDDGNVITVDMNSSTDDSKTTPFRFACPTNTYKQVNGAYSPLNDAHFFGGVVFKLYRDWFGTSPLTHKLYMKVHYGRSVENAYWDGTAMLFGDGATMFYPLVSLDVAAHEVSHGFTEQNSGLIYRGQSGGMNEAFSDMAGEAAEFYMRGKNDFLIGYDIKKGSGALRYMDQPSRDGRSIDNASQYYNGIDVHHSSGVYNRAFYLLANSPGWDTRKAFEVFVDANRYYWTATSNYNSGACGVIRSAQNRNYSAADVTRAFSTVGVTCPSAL

Compound	Ki
NC(=O)[C@H](CC(=O)O)NC(=O)[C@H](CS)NC(=O)CS	Not Active
NC(=O)[C@H](Cc1ccccc1)NC(=O)[C@H](CC(=O)O)NC(=O)CS	Not Active
NC(=O)CC[C@H](NC(=O)CS)C(=O)N[C@@H](Cc1ccccc1)C(N)=O	Not Active
NC(=O)[C@H](Cc1c[nH]c2ccccc12)NC(=O)[C@H](CO)NC(=O)CS	Not Active
CC(C)[C@H](NC(=O)CS)C(=O)N[C@@H](Cc1c[nH]c2ccccc12)C(N)=O	Not Active
C[C@@H](O)[C@H](NC(=O)CS)C(=O)N[C@@H](CCCCN)C(N)=O	Not Active
N=C(N)NCCC[C@H](NC(=O)[C@H](CCCNC(=N)N)NC(=O)CS)C(N)=O	Not Active
CC[C@@H](C)[C@H](NC(=O)CS)C(=O)N[C@@H](CCCNC(=N)N)C(N)=O	Not Active
NC(=O)CC[C@H](NC(=O)CS)C(=O)N[C@@H](CC(=O)O)C(N)=O	Not Active
CSCC[C@H](NC(=O)CS)C(=O)N[C@@H](CC(C)C)C(N)=O	Not Active
CC(C)C[C@H](NC(=O)[C@H](CCC(=O)O)NC(=O)CS)C(N)=O	Not Active
NC(=O)[C@H](CC(=O)O)NC(=O)[C@H](Cc1c[nH]cn1)NC(=O)CS	Not Active
NC(=O)[C@H](CC(=O)O)NC(=O)CNC(=O)CS	Not Active
N=C(N)NCCC[C@H](NC(=O)[C@H](Cc1c[nH]cn1)NC(=O)CS)C(N)=O	Not Active
N=C(N)NCCC[C@H](NC(=O)[C@H](CCC(=O)O)NC(=O)CS)C(N)=O	Not Active
NC(=O)[C@H](CC(=O)O)NC(=O)[C@H](CC(=O)O)NC(=O)CS	Not Active
CC(C)C[C@H](NC(=O)[C@@H](NC(=O)CS)[C@@H](C)O)C(N)=O	Not Active
CC[C@@H](C)[C@H](NC(=O)CS)C(=O)N[C@@H](Cc1ccccc1)C(N)=O	Not Active
N=C(N)NCCC[C@H](NC(=O)[C@H](Cc1ccccc1)NC(=O)CS)C(N)=O	Not Active

Same assay, conditions: read-out: Ki

Compound	Ki
NC(=O)[C@H](Cc1ccccc1)NC(=O)[C@H](Cc1cnc[nH]1)NC(=O)CS	21 µM
NCCCC[C@H](NC(=O)[C@H](Cc1ccc(O)cc1)NC(=O)CS)C(N)=O	8.5 µM
NCCCC[C@H](NC(=O)[C@@H]1CCCN1C(=O)CS)C(N)=O	766 µM
CC(C)C[C@H](NC(=O)[C@H](CCCCN)NC(=O)CS)C(N)=O	123 µM
NCCCC[C@H](NC(=O)[C@H](CCC(=O)O)NC(=O)CS)C(N)=O	553 µM
NC(=O)CC[C@H](NC(=O)CS)C(=O)N[C@@H](CCCN=C(N)N)C(N)=O	217 µM
CC(C)C[C@H](NC(=O)[C@H](Cc1ccccc1)NC(=O)CS)C(N)=O	645 µM
CC[C@@H](C)[C@H](NC(=O)CS)C(=O)N[C@@H](CC(C)C)C(N)=O	1.3 µM
CC(C)C[C@H](NC(=O)CNC(=O)CS)C(N)=O	138 µM
CC(C)[C@H](NC(=O)[C@H](Cc1c[nH]c2ccccc12)NC(=O)CS)C(N)=O	4.1 µM
NC(=O)[C@H](Cc1ccccc1)NC(=O)[C@H](CCCN=C(N)N)NC(=O)CS	224 µM
NC(=O)[C@H](CC(=O)O)NC(=O)[C@H](CCCN=C(N)N)NC(=O)CS	650 µM
CC(C)C[C@H](NC(=O)[C@H](CC(C)C)NC(=O)CS)C(N)=O	53 µM
CC(C)[C@H](NC(=O)[C@@H]1CCCN1C(=O)CS)C(N)=O	157 µM
NC(=O)[C@H](Cc1c[nH]c2ccccc12)NC(=O)[C@@H]1CCCN1C(=O)CS	562 µM
NCCCC[C@H](NC(=O)CS)C(=O)N[C@@H](CC(=O)O)C(N)=O	971 µM
NC(=O)C[C@H](NC(=O)CS)C(=O)N[C@@H](Cc1c[nH]c2ccccc12)C(N)=O	70 µM
NCCCC[C@H](NC(=O)CNC(=O)CS)C(N)=O	451 µM
NC(=O)CC[C@H](NC(=O)CS)C(=O)N[C@@H](Cc1c[nH]c2ccccc12)C(N)=O	91 µM
NC(=O)[C@H](Cc1c[nH]c2ccccc12)NC(=O)[C@H](CC(=O)O)NC(=O)CS	207 µM
CC(C)C[C@H](NC(=O)[C@H](CO)NC(=O)CS)C(N)=O	510 µM
CC(C)C[C@H](NC(=O)[C@H](CC(=O)O)NC(=O)CS)C(N)=O	118 µM
CC(C)[C@H](NC(=O)CNC(=O)CS)C(N)=O	457 µM
CC(C)C[C@H](NC(=O)CS)C(=O)N[C@@H](CC(=O)O)C(N)=O	587 µM

Compound	Ki
CC(C)[C@H](NC(=O)CS)C(=O)N[C@@H](CCCN=C(N)N)C(N)=O	69 µM
NCCCC[C@H](NC(=O)[C@H](CS)NC(=O)CS)C(N)=O	274 µM
NCCCC[C@H](NC(=O)[C@H](CCCCN)NC(=O)CS)C(N)=O	433 µM
CC(C)[C@H](NC(=O)CS)C(=O)N[C@@H](Cc1ccccc1)C(N)=O	72 µM
CSCC[C@H](NC(=O)CS)C(=O)N[C@@H](Cc1ccccc1)C(N)=O	867 µM
NCCCC[C@H](NC(=O)CS)C(=O)N[C@@H](Cc1ccccc1)C(N)=O	126 µM
NCCCC[C@H](NC(=O)[C@H](CC(=O)O)NC(=O)CS)C(N)=O	491 µM
NCCCC[C@H](NC(=O)[C@H](CC(N)=O)NC(=O)CS)C(N)=O	289 µM
CSCC[C@H](NC(=O)CS)C(=O)N[C@H](C(N)=O)C(C)C	98 µM
CC(C)C[C@H](NC(=O)[C@H](CCC(N)=O)NC(=O)CS)C(N)=O	540 µM
NC(=O)[C@H](Cc1c[nH]c2ccccc12)NC(=O)[C@H](Cc1ccc(O)cc1)NC(=O)CS	14 µM
CC[C@@H](C)[C@H](NC(=O)CS)C(=O)N[C@@H](Cc1c[nH]c2ccccc12)C(N)=O	366 µM
CC[C@@H](C)[C@H](NC(=O)CS)C(=O)N[C@H](C(N)=O)C(C)C	1.8 µM
NC(=O)[C@H](Cc1ccccc1)NC(=O)[C@H](Cc1ccc(O)cc1)NC(=O)CS	6.5 µM
CC(C)C[C@H](NC(=O)[C@H](CC(N)=O)NC(=O)CS)C(N)=O	508 µM
NC(=O)[C@H](Cc1c[nH]c2ccccc12)NC(=O)[C@H](Cc1cnc[nH]1)NC(=O)CS	18 µM
C[C@H](NC(=O)CS)C(=O)N[C@@H](CCCCN)C(N)=O	153 µM
N=C(N)NCCC[C@H](NC(=O)[C@H](CO)NC(=O)CS)C(N)=O	444 µM
N=C(N)NCCC[C@H](NC(=O)[C@@H]1CCCN1C(=O)CS)C(N)=O	56 µM
CC(C)[C@H](NC(=O)[C@H](Cc1ccc(O)cc1)NC(=O)CS)C(N)=O	0.77 µM
NC(=O)[C@H](CC(=O)O)NC(=O)[C@H](Cc1ccc(O)cc1)NC(=O)CS	5.5 µM
C[C@H](NC(=O)CS)C(=O)N[C@@H](CC(=O)O)C(N)=O	316 µM
CC(C)C[C@H](NC(=O)[C@H](Cc1ccc(O)cc1)NC(=O)CS)C(N)=O	33 µM
CC(C)C[C@H](NC(=O)[C@@H]1CCCN1C(=O)CS)C(N)=O	246 µM
